# Measurements: ChEMBL document CHEMBL3352069, “Thieno[2,3-b]pyridines as negative allosteric modulators of metabotropic GluR5 receptors: hit-to-lead optimization” (Bioorg Med Chem Lett, 2014)
# Experiments:
# [1] = target: Metabotropic glutamate receptor 5 (Rattus norvegicus) (UniProt P31424); assay: Displacement of [3H]-M-MPEP from mGluR5 in rat cerebrocortical membrane preparation at 1 uM; assay type: cell membranes
# [2] = target: T1, Metabotropic glutamate receptor 5 (Rattus norvegicus, UniProt P31424); assay: Displacement of [3H]-M-MPEP from mGluR5 in rat cerebrocortical membrane preparation; assay type: cell membranes
# [3] = target: T1, Metabotropic glutamate receptor 5; assay: Inhibition of mGluR5 in rat embryo neuronal culture assessed as calcium level by Fluo-4/AM dye based fluorometry; assay type: functional
# Rattus norvegicus = assay: Anxiolytic activity in ip dosed rat assessed as increase in number of shocks measured for 30 mins Vogel punished drinking model; assay type: functional, organism-based
# Metabotropic glutamate receptor 5 (Rattus norvegicus), sequence (P31424 21-1203 limits assumed): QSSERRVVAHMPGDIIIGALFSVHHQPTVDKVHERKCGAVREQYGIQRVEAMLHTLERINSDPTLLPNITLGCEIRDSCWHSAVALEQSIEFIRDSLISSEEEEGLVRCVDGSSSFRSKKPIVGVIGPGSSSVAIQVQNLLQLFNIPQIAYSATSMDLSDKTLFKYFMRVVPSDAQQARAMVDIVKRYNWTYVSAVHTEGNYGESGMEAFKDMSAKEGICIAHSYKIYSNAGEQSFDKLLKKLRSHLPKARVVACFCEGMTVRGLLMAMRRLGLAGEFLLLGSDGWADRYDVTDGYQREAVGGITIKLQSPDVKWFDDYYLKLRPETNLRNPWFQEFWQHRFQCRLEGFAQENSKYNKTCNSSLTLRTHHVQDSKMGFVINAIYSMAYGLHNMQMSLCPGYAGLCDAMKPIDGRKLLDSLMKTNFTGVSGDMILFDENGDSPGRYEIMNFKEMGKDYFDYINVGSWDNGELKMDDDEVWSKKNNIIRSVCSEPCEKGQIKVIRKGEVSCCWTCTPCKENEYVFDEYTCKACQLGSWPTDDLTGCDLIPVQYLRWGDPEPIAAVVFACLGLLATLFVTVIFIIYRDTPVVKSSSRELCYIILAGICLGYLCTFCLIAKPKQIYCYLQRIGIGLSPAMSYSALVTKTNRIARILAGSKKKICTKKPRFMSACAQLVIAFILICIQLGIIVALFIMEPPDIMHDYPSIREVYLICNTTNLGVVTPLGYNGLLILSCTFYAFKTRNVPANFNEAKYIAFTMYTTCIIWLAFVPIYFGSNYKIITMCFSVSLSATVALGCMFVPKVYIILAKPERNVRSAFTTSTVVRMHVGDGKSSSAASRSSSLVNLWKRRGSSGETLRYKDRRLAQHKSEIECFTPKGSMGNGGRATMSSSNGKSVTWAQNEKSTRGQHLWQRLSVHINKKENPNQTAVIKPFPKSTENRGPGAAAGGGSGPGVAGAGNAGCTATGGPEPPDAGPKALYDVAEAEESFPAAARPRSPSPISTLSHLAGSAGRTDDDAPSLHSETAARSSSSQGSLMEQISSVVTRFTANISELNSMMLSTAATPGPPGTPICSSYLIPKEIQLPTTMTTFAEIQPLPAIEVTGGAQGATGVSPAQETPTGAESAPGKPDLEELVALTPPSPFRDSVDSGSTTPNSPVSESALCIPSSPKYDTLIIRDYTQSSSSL
# T1 sequence (P31424 whole entry): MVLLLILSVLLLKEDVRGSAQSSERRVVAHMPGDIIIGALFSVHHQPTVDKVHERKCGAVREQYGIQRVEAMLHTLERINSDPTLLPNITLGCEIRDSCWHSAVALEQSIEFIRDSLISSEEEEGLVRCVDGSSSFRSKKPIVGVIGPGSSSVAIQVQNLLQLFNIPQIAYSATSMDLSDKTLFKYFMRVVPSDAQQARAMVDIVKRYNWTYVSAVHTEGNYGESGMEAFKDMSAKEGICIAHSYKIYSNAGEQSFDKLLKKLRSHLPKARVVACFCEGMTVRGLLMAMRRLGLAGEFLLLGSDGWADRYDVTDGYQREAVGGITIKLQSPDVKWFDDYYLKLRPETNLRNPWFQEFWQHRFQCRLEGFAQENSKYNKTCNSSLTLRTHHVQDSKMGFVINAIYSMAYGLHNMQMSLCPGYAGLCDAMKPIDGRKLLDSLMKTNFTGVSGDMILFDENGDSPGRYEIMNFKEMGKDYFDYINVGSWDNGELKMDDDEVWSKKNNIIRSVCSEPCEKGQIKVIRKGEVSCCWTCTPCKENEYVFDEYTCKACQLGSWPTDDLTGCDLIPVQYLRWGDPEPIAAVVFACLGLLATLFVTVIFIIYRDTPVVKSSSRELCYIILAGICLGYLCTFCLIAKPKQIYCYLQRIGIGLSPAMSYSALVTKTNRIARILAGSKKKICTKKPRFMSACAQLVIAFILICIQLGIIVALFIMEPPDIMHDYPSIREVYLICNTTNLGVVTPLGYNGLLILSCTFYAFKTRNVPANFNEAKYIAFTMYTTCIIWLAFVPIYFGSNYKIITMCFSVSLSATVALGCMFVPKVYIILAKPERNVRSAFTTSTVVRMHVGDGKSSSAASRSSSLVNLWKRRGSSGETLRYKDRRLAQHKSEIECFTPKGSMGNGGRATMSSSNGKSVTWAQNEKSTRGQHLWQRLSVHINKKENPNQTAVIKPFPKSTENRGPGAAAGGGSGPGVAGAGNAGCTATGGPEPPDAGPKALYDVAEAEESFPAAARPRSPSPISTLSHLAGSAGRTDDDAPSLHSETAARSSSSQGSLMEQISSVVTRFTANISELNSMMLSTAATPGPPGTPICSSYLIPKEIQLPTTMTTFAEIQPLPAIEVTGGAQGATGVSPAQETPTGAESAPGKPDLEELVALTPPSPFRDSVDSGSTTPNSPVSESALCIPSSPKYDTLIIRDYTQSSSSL
SMILES,inhibition [1] [%],Ki [2] [nM],other results
OC(CCc1ccc(F)cc1)c1sc2ncccc2c1-c1ccc(F)cc1 (stereo not given),3,–,–
COc1ccc(CCC(=O)c2sc3ncccc3c2-c2ccccc2)cc1,–,2500,IC50 [3]: 8000 nM
O=C(Cc1ccc(F)cc1)c1sc2ncccc2c1-c1ccc(Cl)cc1,–,83,IC50 [3]: 350 nM
Fc1ccc(-c2nnc(-c3sc4ncccc4c3-c3ccc(Cl)cc3)o2)cc1,24,–,–
O=S(=O)(c1ccc(Cl)cc1)c1sc2ncccc2c1-c1ccc(Cl)cc1,–,12.3,Activity (Rattus norvegicus): Dose-dependent effect; IC50 [3]: 46 nM
O=C(CCc1ccc(F)cc1)c1sc2ncccc2c1-c1ccc(F)cc1,–,180,IC50 [3]: 1000 nM
O=C(CCc1ccc(F)cc1)c1[nH]c2ccccc2c1-c1ccc(F)cc1,4,–,–
O=C(CCc1ccccc1)c1sc2ncccc2c1-c1ccccc1,–,730,IC50 [3]: 3300 nM
O=C(Cc1ccc(F)cc1)c1sc2ncccc2c1-c1ccc(F)cc1,–,140,–
CC(=O)c1sc2ncccc2c1-c1ccccc1,17,–,–
Fc1ccc(CCCc2sc3ncccc3c2-c2ccc(F)cc2)cc1,0,–,–
O=C(CCc1ccc(F)cc1)c1sc2ncccc2c1-c1ccccc1,–,343,IC50 [3]: 2100 nM
CN(Cc1ccc(F)cc1)C(=O)c1sc2ncccc2c1-c1ccc(Cl)cc1,13,–,–
O=C(Nc1ccc(F)cc1)c1sc2ncccc2c1-c1ccc(Cl)cc1,0,–,–
O=C(CCc1cccc(F)c1)c1sc2ncccc2c1-c1ccc(F)cc1,–,224,–
O=C(NCc1ccc(F)cc1)c1sc2ncccc2c1-c1ccc(F)cc1,–,311,–
O=C(CCc1ccccc1)c1sccc1-c1ccc(F)cc1,0,–,–
CN(C(=O)c1sc2ncccc2c1-c1ccc(F)cc1)c1ccc(F)cc1,19,–,–
O=C(c1ccc(Cl)cc1)c1sc2ncccc2c1-c1ccc(F)cc1,30,–,–
Fc1ccc(C/C=C/c2sc3ncccc3c2-c2ccc(F)cc2)cc1,12,–,–
O=C(CCc1ccccc1)c1sccc1-c1ccccc1,0,–,–
O=C(OCc1ccc(F)cc1)c1sc2ncccc2c1-c1ccc(Cl)cc1,–,41,IC50 [3]: 150 nM
c1ccc(-c2csc3ncccc23)cc1,0,–,–
Fc1ccc(-c2nc(-c3sc4ncccc4c3-c3ccc(Cl)cc3)no2)cc1,0,–,–
Fc1ccc(-c2c(C3=NOC(c4ccc(F)cc4)C3)sc3ncccc23)cc1 (stereo not given),52,–,–
O=C(CCc1ccc(F)cc1)c1sc2ccccc2c1-c1ccc(F)cc1,8,–,–
O=C(Oc1ccc(F)cc1)c1sc2ncccc2c1-c1ccc(Cl)cc1,15,–,–
